# From patent publication US20050244810A1, “Taste signaling in gastrointestinal cells” (priority 2003, published 2005)
# System: G proteins on NCI-H716 cells
# Assay: Radiometric [35S]GTPγS binding assay with NCI-H716 cell membranes
# Format: biochemical, human
# Settings: for GTPγS binding to G proteins as compared to non-specific binding (NSB): NCI-H716 cell membrane fractions, 10 μl 50 mM compound in 50 μl assay, 2 hours at 25° C.; for effect of added transducin on the level of GTPγS binding to G proteins: transducin 4 μg/50 μl assay added together with compound (FIG. 4C, 5C)
# Experimental: [^35S] GTPγS binding assays were performed in triplicate in 96-well plates [see Northup et al., J. Biol. Chem., 257, 11416-23 (1982)]. To each well the following was added and allowed to incubate for 2 hours at 25° C.: […] of a 2× buffer (5 mM HEPES pH 7.8, 1 μM GTPγS, 4 μCi/ml [^35S]GTPγS); 10 μl 50 mM dextromethorphan or doxylamine; and 15 μl ([…]) NCI-H7-16 cell membranes or supernatant (supernatant from NCI-H716 cells spun at 900 g (S1), pellets from NCI-H716 cells spun at 900 g (P1), and pellets from NCI-H716 cells spun at 100,000 g (P2)). Where indicated, transducin was also added (4 μg/50 μl assay). The total assay volume per well was 50 μl.
# To separate the free [^35S] GTPγS from the [^35S] GTPγS that bound to G proteins, 40 μl of the mixture was filtered using a pre-wet Millipore Multiscreen Filtration opaque 96-well plate (0.45 μm mixed cellulose acetate, #MHABN4550). The samples were washed three times with 0.2 ml ice-cold wash buffer (0.5 M Tris-HCl, 0.04 M-magnesium chloride 6H20, 1 M sodium chloride) using a Whatman Polyfiltronics manifold under pressure from a Gast vacuum pump (#DOA-P104 AA) set to 10 PSI. The rubber manifold of the Multiscreen plates was removed and the filters were allowed to dry under warm lights and a fan for 15 minutes.
# The plates were then fitted with adapter plates (Packard #6005178) and 30 μl Microscint PS (#6013631) was added to each well. Next, the plates were heat sealed with Packard TopSeal-S sealing film (#6005161) using a Packard Micromate 496 heat sealer. Radioactivity bound to the filter plates was counted in a Packard Top Count NXT scintillation counter.
SMILES,GTPγS binding to G proteins as compared to non-specific binding (NSB),effect of added transducin on the level of GTPγS binding to G proteins,amount of compound needed to saturate NCI-H716 cell membranes in GTPγS binding (2 μg of NCI-H716 cell membranes (FIG. 6B)),"GTPγS binding to G proteins in the absence of transducin (NCI-H716 cell fractions, no transducin added (FIG. 4A))"
CN(C)CCOC(C)(c1ccccc1)c1ccccn1 (stereo not drawn) [doxylamine],increase this binding,significantly increased the binding to G proteins,,
COc1ccc2c(c1)[C@]13CCCC[C@@H]1[C@H](C2)N(C)CC3 [dextromethorphan],increase this binding,little effect,10 mM,increased the binding to G proteins
